Experimental data taken from ChEMBL document CHEMBL4725412, “Augmenting the Activity of Macrolide Adjuvants against Acinetobacter baumannii” (2020).
Calls of active or inactive are those of the source. The calls are words filed in the database; no cut-off is given here.

How the values were obtained:
Acinetobacter baumannii [1] = assay: Potentiation of clarithromycin-induced antibacterial activity against Acinetobacter baumannii AB5075 assessed as clarithromycin MIC at 20 uM incubated for 16 hrs by broth microdilution method (reference value: […] ug/ml); format: functional
Acinetobacter baumannii [2] = assay: Potentiation of clarithromycin-induced antibacterial activity against Acinetobacter baumannii AB5075 assessed as clarithromycin MIC at 10 uM incubated for 16 hrs by broth microdilution method (reference value: […] ug/ml); format: functional
Acinetobacter baumannii [3] = assay: Antibacterial activity against Acinetobacter baumannii AB5075 assessed as reduction in microbial growth incubated for 16 hrs by broth microdilution method; format: functional
Acinetobacter baumannii [4] = assay: Potentiation of Colistin-induced Acinetobacter baumannii AB5075 assessed as Colistin MIC at 30 uM by broth microdilution method; format: functional, organism-based
Acinetobacter baumannii [5] = assay: Potentiation of clarithromycin-induced antibacterial activity against Acinetobacter baumannii AB5075 assessed as fold reduction in clarithromycin MIC at 30 uM incubated for 16 hrs in presence of clarithromycin by broth microdilution method; format: functional
Acinetobacter baumannii [6] = assay: Potentiation of clarithromycin-induced antibacterial activity against Acinetobacter baumannii AB5075 assessed as clarithromycin MIC at […] incubated for 16 hrs by broth microdilution method (reference value: […] ug/ml); format: functional; settings: dose 30 µM
Acinetobacter baumannii [7] = assay: Antibacterial activity against Acinetobacter baumannii AB5075 assessed as reduction in microbial growth after 2 days by broth microdilution method; format: functional; settings: AB5075, 48 h, time 2 day
Acinetobacter baumannii [8] = assay: Antibacterial activity against Acinetobacter baumannii AB5075 assessed as reduction in microbial growth after 6 days by broth microdilution method; format: functional; settings: AB5075, 144 h, time 6 day
Acinetobacter baumannii [9] = assay: Antibacterial activity against Acinetobacter baumannii AB5075 assessed as reduction in microbial growth after 9 days by broth microdilution method; format: functional; settings: AB5075, 216 h, time 9 day
Acinetobacter baumannii [10] = assay: Potentiation of clarithromycin-induced antibacterial activity against Acinetobacter baumannii AB5075 assessed as clarithromycin MIC at 5 uM incubated for 16 hrs by broth microdilution method (reference value: […] ug/ml); format: functional
Acinetobacter baumannii [11] = assay: Potentiation of clarithromycin-induced antibacterial activity against Acinetobacter baumannii AB5075 assessed as fold reduction in clarithromycin MIC at 10 uM incubated for 16 hrs in presence of clarithromycin by broth microdilution method; format: functional
Acinetobacter baumannii [12] = assay: Potentiation of clarithromycin-induced antibacterial activity against Acinetobacter baumannii AB5075 assessed as fold reduction in clarithromycin MIC at 20 uM incubated for 16 hrs in presence of clarithromycin by broth microdilution method; format: functional
Acinetobacter baumannii [13] = assay: Potentiation of clarithromycin-induced antibacterial activity against Acinetobacter baumannii AB5075 assessed as clarithromycin MIC at 7.5 uM incubated for 16 hrs by broth microdilution method (reference value: […] ug/ml); format: functional
Acinetobacter baumannii [14] = assay: Potentiation of clarithromycin-induced antibacterial activity against Acinetobacter baumannii AB5075 assessed as fold reduction in clarithromycin MIC at 7.5 uM incubated for 16 hrs in presence of clarithromycin broth microdilution method; format: functional
Acinetobacter baumannii [15] = assay: Potentiation of clarithromycin-induced antibacterial activity against Acinetobacter baumannii AB5075 assessed as clarithromycin MIC at 15 uM incubated for 16 hrs by broth microdilution method (reference value: […] ug/ml); format: functional
Acinetobacter baumannii [16] = assay: Potentiation of clarithromycin-induced antibacterial activity against Acinetobacter baumannii AB5075 assessed as fold reduction in clarithromycin MIC at 5 uM incubated for 16 hrs in presence of clarithromycin by broth microdilution method; format: functional
Acinetobacter baumannii [17] = assay: Antibacterial activity against Acinetobacter baumannii AB5075 assessed as reduction in microbial growth by CLSI based microdilution method; format: functional
Acinetobacter baumannii [18] = assay: Potentiation of clarithromycin-induced antibacterial activity against Acinetobacter baumannii AB5075 assessed as clarithromycin MIC at 10 uM by CLSI based microdilution method (reference value: […] ug/ml); format: functional
Acinetobacter baumannii [19] = assay: Potentiation of clarithromycin-induced antibacterial activity against Acinetobacter baumannii AB5075 assessed as clarithromycin MIC at 30 uM by CLSI based microdilution method (reference value: […] ug/ml); format: functional
Acinetobacter baumannii [20] = assay: Potentiation of clarithromycin-induced antibacterial activity against Acinetobacter baumannii AB5075 assessed as assessed as fold reduction in clarithromycin MIC at 30 uM by CLSI based microdilution method; format: functional
Acinetobacter baumannii [21] = assay: Potentiation of clarithromycin-induced antibacterial activity against Acinetobacter baumannii AB5075 assessed as assessed as fold reduction in clarithromycin MIC at 10 uM by CLSI based microdilution method; format: functional
Acinetobacter baumannii [22] = assay: Potentiation of clarithromycin-induced antibacterial activity against Acinetobacter baumannii AB5075 assessed as clarithromycin MIC at 25 uM incubated for 16 hrs by broth microdilution method (reference value: […] ug/ml); format: functional

MIC (Acinetobacter baumannii [1])	MIC (Acinetobacter baumannii [2])	MIC (Acinetobacter baumannii [3])	SMILES	fold change (FC) (Acinetobacter baumannii [5])	also measured
	1 µM	50 µM	Cc1ccc(C(=O)Nc2ccc(-c3c[nH]c(N)n3)cc2)cc1F		MIC (Acinetobacter baumannii [10]): 16 µM
		≥ 200 µM	Nc1ncc(-c2ccc(NC(=O)c3ccc(I)cc3)cc2)[nH]1		
0.5 µg/mL	8 µg/mL	> 200 µM	Cc1cc(NC(=O)c2cc(Cl)cc(Cl)c2)ccc1-c1c[nH]c(N)n1.Cl	64	fold change (FC) (Acinetobacter baumannii [11]): 4; fold change (FC) (Acinetobacter baumannii [12]): 64; MIC (Acinetobacter baumannii [6]): 0.5 µg/mL
	2 µg/mL	50 µM	Cl.Nc1nc(-c2ccc(NC(=O)c3ccc(Cl)c(C(F)(F)F)c3)cc2F)c[nH]1		MIC (Acinetobacter baumannii [13]): 8 µg/mL; fold change (FC) (Acinetobacter baumannii [11]): 16; fold change (FC) (Acinetobacter baumannii [14]): 4; MIC (Acinetobacter baumannii [15]): 0.25 µg/mL
0.0625 µg/mL	0.25 µg/mL	100 µM	Cl.Nc1nc(-c2ccc(NC(=O)Nc3ccc(Cl)c(Cl)c3)cc2)c[nH]1	>=512	MIC (Acinetobacter baumannii [10]): 8 µg/mL; MIC (Acinetobacter baumannii [13]): 2 µg/mL; fold change (FC) (Acinetobacter baumannii [12]): >=512; fold change (FC) (Acinetobacter baumannii [16]): 4; fold change (FC) (Acinetobacter baumannii [14]): 16; MIC (Acinetobacter baumannii [6]): 0.0625 µg/mL; MIC (Acinetobacter baumannii [15]): 0.125 µg/mL
		≥ 200 µM	Cl.Nc1ncc(-c2ccc(NC(=O)c3cc(F)cc(F)c3)cc2)[nH]1	8	MIC (Acinetobacter baumannii [6]): 4 µg/mL
		≥ 200 µM	Nc1nc(-c2ccc(NC(=O)c3c(F)c(F)c(F)c(F)c3F)cc2)c[nH]1		
		25 µM	Cl.Nc1nc(-c2ccc(NC(=O)Nc3cc(Cl)cc(Cl)c3)cc2)c[nH]1		MIC (Acinetobacter baumannii [10]): 8 µg/mL; MIC (Acinetobacter baumannii [13]): 0.5 µg/mL; fold change (FC) (Acinetobacter baumannii [16]): 4; fold change (FC) (Acinetobacter baumannii [14]): 64
		≥ 200 µM	Cl.Nc1ncc(-c2ccc(NC(=O)c3ccc(Cl)cc3Cl)cc2)[nH]1	8	
		≥ 200 µM	Nc1ncc(-c2ccc(NC(=O)c3cc(I)c(I)c(I)c3)cc2)[nH]1		
4 µM	16 µM	≥ 200 µM	Nc1nc(-c2ccc(NC(=O)c3cccc(Cl)c3)cc2)c[nH]1		
8 µg/mL	16 µg/mL	> 200 µM	Cl.Nc1nc(-c2ccc(NC(=O)c3cc(Br)cc(Br)c3)cc2F)c[nH]1	16	fold change (FC) (Acinetobacter baumannii [11]): 2; fold change (FC) (Acinetobacter baumannii [12]): 4; MIC (Acinetobacter baumannii [6]): 2 µg/mL
8 µg/mL			Cl.Nc1nc(-c2c(F)cc(NC(=O)c3cc(Cl)cc(Cl)c3)cc2F)c[nH]1		fold change (FC) (Acinetobacter baumannii [11]): 2; MIC (Acinetobacter baumannii [6]): 4 µg/mL

Second part, the compound before the results:

SMILES	MIC (Acinetobacter baumannii [1])	MIC (Acinetobacter baumannii [2])	MIC (Acinetobacter baumannii [3])	fold change (FC) (Acinetobacter baumannii [5])	also measured
Nc1ncc(-c2ccc(NC(=O)c3ccc(Br)cc3F)cc2)[nH]1	16 µM	32 µM	≥ 200 µM		Activity (Acinetobacter baumannii [4]): inactive
Cl.Nc1ncc(-c2ccc(NC(=O)c3ccc(Cl)c(Cl)c3)cc2)[nH]1	0.5 µM	4 µM	100 µM	64	
Cl.Nc1nc(-c2ccc(NC(=O)c3cc(Cl)cc(Cl)c3)c(F)c2)c[nH]1			> 200 µM	4	MIC (Acinetobacter baumannii [6]): 16 µg/mL
CC[C@H]1OC(=O)[C@H](C)[C@@H](O[C@H]2C[C@@](C)(OC)[C@@H](O)[C@H](C)O2)[C@H](C)[C@@H](O[C@@H]2O[C@H](C)C[C@H](N(C)C)[C@H]2O)[C@](C)(OC)C[C@@H](C)C(=O)[C@H](C)[C@@H](O)[C@]1(C)O [CLARITHROMYCIN]					MIC (Acinetobacter baumannii [7]): ≥ 128 µg/mL; MIC (Acinetobacter baumannii [8]): 512 µg/mL; MIC (Acinetobacter baumannii [9]): 512 µg/mL
Cl.Nc1nc(-c2ccc(NC(=O)c3ccc(C(F)(F)F)c(Cl)c3)cc2F)c[nH]1		8 µg/mL	50 µM		MIC (Acinetobacter baumannii [13]): 16 µg/mL; fold change (FC) (Acinetobacter baumannii [11]): 4; fold change (FC) (Acinetobacter baumannii [14]): 2; MIC (Acinetobacter baumannii [15]): 0.25 µg/mL
Cc1cc(C)cc(C(=O)Nc2ccc(-c3c[nH]c(N)n3)cc2)c1.Cl			≥ 200 µM		MIC (Acinetobacter baumannii [6]): 2 µg/mL; Activity (Acinetobacter baumannii [4]): inactive
Nc1nc(-c2ccc(NC(=O)c3cc(F)c(F)c(F)c3)cc2)c[nH]1	8 µM	32 µM	100 µM		
Nc1nc(-c2ccc(NC(=O)c3cccc(F)c3)cc2)c[nH]1			≥ 200 µM		
Nc1ncc(-c2ccc(NC(=O)c3cc(Br)cc(Br)c3)cc2)[nH]1					MIC (Acinetobacter baumannii [17]): 100 µM; MIC (Acinetobacter baumannii [18]): 2 µg/mL; MIC (Acinetobacter baumannii [19]): 0.25 µg/mL; fold change (FC) (Acinetobacter baumannii [20]): 128; fold change (FC) (Acinetobacter baumannii [21]): 16
Nc1nc(-c2ccc(NC(=O)c3ccc(F)cc3)cc2)c[nH]1			≥ 200 µM		
Nc1nc(-c2ccc(NC(=O)c3ccccc3)cc2)c[nH]1			≥ 200 µM		
Cl.Nc1nc(-c2ccc(NC(=O)c3cc(C(F)(F)F)cc(C(F)(F)F)c3)cc2)c[nH]1			50 µM		MIC (Acinetobacter baumannii [15]): 8 µg/mL
Nc1nc(-c2ccc(NC(=O)c3cc(Cl)c(Br)c(Cl)c3)cc2)c[nH]1	0.25 µM	0.25 µM	≥ 200 µM		
Cl.Nc1nc(-c2ccc(NC(=O)c3cc(Cl)cc(Cl)c3)c(Cl)c2)c[nH]1			> 200 µM	2	MIC (Acinetobacter baumannii [6]): 8 µg/mL
Cc1cc(-c2c[nH]c(N)n2)ccc1NC(=O)c1cc(Cl)cc(Cl)c1.Cl	1 µg/mL	16 µg/mL	> 200 µM	64	fold change (FC) (Acinetobacter baumannii [11]): 2; fold change (FC) (Acinetobacter baumannii [12]): 32
Nc1nc(-c2ccc(NC(=O)c3ccc(C(F)(F)F)cc3)cc2)c[nH]1			≥ 200 µM		
Cc1ccc(C(=O)Nc2ccc(-c3c[nH]c(N)n3)cc2)cc1Cl			25 µM		MIC (Acinetobacter baumannii [10]): 16 µM
Nc1nc(-c2ccc(NC(=O)c3cccc(Br)c3)cc2)c[nH]1			≥ 200 µM		
Nc1nc(-c2ccc(NC(=O)c3ccc(Cl)cc3)cc2)c[nH]1	4 µM	16 µM	≥ 200 µM		
COc1cc(-c2c[nH]c(N)n2)ccc1NC(=O)c1cc(Cl)cc(Cl)c1.Cl	4 µg/mL	16 µg/mL	100 µM	64	fold change (FC) (Acinetobacter baumannii [11]): 2; fold change (FC) (Acinetobacter baumannii [12]): 8; MIC (Acinetobacter baumannii [6]): 0.5 µg/mL
Nc1ncc(-c2ccc(NC(=O)c3cccc(I)c3)cc2)[nH]1			≥ 200 µM		
Cl.Nc1nc(-c2ccc(NC(=O)c3cc(Cl)cc(Cl)c3)cc2F)c[nH]1	0.25 µg/mL	0.5 µg/mL	> 200 µM	128	MIC (Acinetobacter baumannii [10]): 8 µg/mL; MIC (Acinetobacter baumannii [13]): 4 µg/mL; fold change (FC) (Acinetobacter baumannii [11]): 64; fold change (FC) (Acinetobacter baumannii [16]): 4; fold change (FC) (Acinetobacter baumannii [14]): 8; MIC (Acinetobacter baumannii [6]): 0.5 µg/mL
Nc1nc(-c2ccc(NC(=O)c3ccc(Cl)c(C(F)(F)F)c3)cc2)c[nH]1		2 µM	100 µM		
Nc1nc(-c2ccc(NC(=O)c3c(Cl)cc(Cl)cc3Cl)cc2)c[nH]1	16 µM	32 µM	100 µM		MIC (Acinetobacter baumannii [22]): 8 µM
Cl.Nc1nc(-c2ccc(NC(=O)c3cc(Cl)cc(Cl)c3)cc2Cl)c[nH]1	0.5 µg/mL	8 µg/mL	> 200 µM	64	fold change (FC) (Acinetobacter baumannii [11]): 4; fold change (FC) (Acinetobacter baumannii [12]): 64; MIC (Acinetobacter baumannii [6]): 0.5 µg/mL
Cl.Nc1ncc(-c2ccc(NC(=O)c3cccc(Cl)c3Cl)cc2)[nH]1			≥ 200 µM	4	
Nc1nc(-c2ccc(NC(=O)c3ccc(Br)cc3)cc2)c[nH]1			≥ 200 µM		Activity (Acinetobacter baumannii [4]): inactive
